Reference: patent US5834461A, “Tricyclic benzazepine vasopressin antagonists” (American Cyanamid Company, priority 1997, dated 1998)

How the values were obtained:
[1] = target: vasopressin V1 receptor (rat liver plasma membranes) (Rattus norvegicus, UniProt P30560); experiment: Binding Assay to Rat Hepatic V1 Receptors; details: rat hepatic V1
Description: Rat liver plasma membranes expressing the vasopressin V1 receptor subtypes are isolated by sucrose density gradient according to the method described by Lesko et al., (1973). These membranes are quickly suspended in 50.0 mM Tris.HCl buffer, pH 7.4, containing 0.2% bovine serum albumin (BSA) and 0.1 mM phenylmethylsulfonylfluoride (PMSF) and kept frozen at -70° C. until used in subsequent binding experiments. For binding experiments, the following is added to the wells of a ninety-six well format microtiter plate: 100 μl of 100.0 mM Tris.HCl buffer containing 10.0 mM MgCl2, 0.2% heat inactivated BSA and a mixture of protease inhibitors: leupeptin, 1.0 mg %; aprotinin, 1.0 mg %; 1,10-phenanthroline,2.0 mg %; trypsin inhibitor, 10.0 mg % and 0.1 mM PMSF, 20.0 μl of [phenylalanyl-3,4,5,-^3 H] vasopressin (S.A. 45.1 Ci/mmole) at 0.8 nM, and the reaction initiated by the addition of 80 μl of tissue membranes containing 20 μg of tissue protein. The plates are kept undisturbed on the bench top at room temperature for 120 min. to reach equilibrium. Non-specific samples are assayed in the presence of 0.1 μM of the unlabeled antagonist phenylalanylvasopressin, added in 20.0 μl volume.
For test compounds, these are solubilized in 50% dimethylsulfoxide (DMSO) and added in 20.0 μl volume to a final incubation volume of 200 μl. Upon completion of binding, the content of each well is filtered off, using a Brandel® cell Harvester (Gaithersburg, Md.). The radioactivity trapped on the filter disk by the ligand-receptor complex is assessed by liquid scintillation counting in a Packard LS Counter, with an efficiency of 65% for tritium.

[2] = target: T1, rat kidney medullary V2 receptors (Rattus norvegicus, UniProt Q00788); experiment: Binding Assay to Rat Kidney Medullary V2 Receptors; details: rat kidney medullary V2
T1 construct: Medullary tissues from rat kidneys are dissected out; from tissue; host or cells: rat kidney medulla membranes
Description: Medullary tissues from rat kidneys are dissected out, cut into small pieces and soaked in a […] sodium chloride solution containing 1.0 mM EDTA with many changes of the liquid phase, until the solution is clear of blood. The tissue is homogenized in a 0.25M sucrose solution containing 1.0 mM EDTA and 0.1 mM PMSF using a Potter-Elvehjem homogenizer with a teflon pestle. The homogenate is filtered through several layers (4 layers) of cheese cloth. The filtrate is rehomogenized using a dounce homogenizer, with a tight fitting pestle. The final homogenate is centrifuged at 1500×g for 15 min. The nuclear pellet is discarded and the supernatant fluid recentrifuged at 40,000×g for 30 min. The resulting pellet formed contains a dark inner part with the exterior, slightly pink. The pink outer part is suspended in a small amount of 50.0 mM Tris.HCl buffer, pH 7.4. The protein content is determined by the Lowry's method (Lowry et al., J. Biol. Chem., 1953). The membrane suspension is stored at -70° C., in 50.0 mM Tris.HCl, containing 0.2% inactivated BSA and 0.1 mM PMSF in aliquots of 1.0 ml containing 10.0 mg protein per ml of suspension until use in subsequent binding experiments.
For binding experiments, the following is added in μl volume to wells of a 96 well format of a microtiter plate: 100.0 μl of 100.0 mM Tris.HCl buffer containing 0.2% heat inactivated BSA, 10.0 mM MgCl2 and a mixture of protease inhibitors: leupeptin, 1.0 mg %; aprotinin, 1.0 mg %; 1,10-phenanthroline, 2.0 mg %; trypsin inhibitor, 10.0 mg % and 0.1 mM PMSF, 20.0 μl of [^3 H] Arginine^8, vasopressin (S.A. 75.0 Ci/mmole) at 0.8 nM and the reaction initiated by the addition of 80.0 μl of tissue membranes (200.0 μg tissue protein). The plates are left undisturbed on the bench top for 120 min to reach equilibrium. Non-specific binding is assessed in the presence of 1.0 μM of unlabeled ligand, added in 20 μl volume. For test compounds, these are solubilized in 50% dimethylsulfoxide (DMSO) and added in 20.0 μl volume to a final incubation volume of 200 μl. Upon completion of binding, the content of each well is filtered off, using a Brandel® cell Harvester (Gaithersburg, Md.). The radioactivity trapped on the filter disk by the ligand-receptor complex is assessed by liquid scintillation counting in a Packard LS Counter, with an efficiency of 65% for tritium.

[3] = test system: vasopressin V2; experiment: Vasopressin V2 Antagonist Activity in Conscious Hydrated Rats (diuretic effect); type: in vivo, normal Sprague-Dawley rats; details: 30 mg/kg orally, AVP 0.4 μg/kg i.p.
Description: Conscious hydrated rats are treated with compounds under study from 0.1 to 100 mg/kg orally or vehicle. Two to four rats are used for each compound. One hour later, arginine vasopressin (AVP, antidiuretic hormore, ADH) dissolved in peanut oil is administered at 0.4 μg/kg intraperitoneally. Two rats in each test would not receive arginine vasopressin but only the vehicle (peanut oil) to serve as water-loading control. Twenty minutes later each rat is given 30 mL/kg of deionized water orally by gavage and is placed individually in a metabolic cage equipped with a funnel and a graduated glass cylinder to collect urine for four hours. Urine volume is measured and osmolality analyzed by use of a Fiske One-Ten osmometer (Fiske Assoc., Norwood, Mass., USA). Urinary sodium, potassium, and chloride are analyzed by use of ion-specific electrodes in a Beckman E3 (Electrolyte 3) Analyzer. In the following results, […] and decreased osmolality relative to AVP-control indicates activity.

[4] = test system: vasopressin V1; experiment: Vasopressin V1 Antagonist Activity in Conscious Rats (vasopressin vasopressor response); type: in vivo, rat (spontaneously hypertensive rats); parameters: Average Change: unit not given here
Description: Conscious rats are restrained in a supine position with elastic tape. The area at the base of the tail is locally anesthetized by subcutaneous infiltration with 2% procaine (0.2 ml). Using aseptic technique the ventral caudal tail artery is isolated and a cannula made of PE 10 and 20 (heat-fused) tubing is passed into the lower abdominal aorta. The cannula is secured, heparinized (1000 i.u./cc), sealed and the wound closed with one or two stitches of Dexon 4-0. The caudal vein is also cannulated in the same manner for intravenous drug administration. The duration of the surgery is approximately 5 minutes. Additional local anesthesia (2% procaine or lidocaine) is provided as needed.
The animals are placed in plastic restraining cages in an upright position. The cannula is attached to a Statham P23Db pressure transducer and pulsatile blood pressure is recorded. […] The vasopressin injections are repeated 30, 60, 90, 120, 180, 240 and 300 min. later. Percentage of antagonism by the compound is calculated using the pre-drug vasopressin vasopressor response as 100%.

[5] = 30 mg/kg p.o., VAS 0.01 i.u./kg, 30 min
[6] = 30 mg/kg p.o., VAS 0.01 i.u./kg, 60 min
[7] = 30 mg/kg p.o., VAS 0.01 i.u./kg, 90 min
[8] = 30 mg/kg p.o., VAS 0.01 i.u./kg, 120 min
[9] = 30 mg/kg p.o., VAS 0.01 i.u./kg, 180 min
[10] = 30 mg/kg p.o., VAS 0.01 i.u./kg, 240 min
[11] = 30 mg/kg p.o., VAS 0.02 i.u./kg, 30 min
[12] = 30 mg/kg p.o., VAS 0.02 i.u./kg, 60 min
[13] = 30 mg/kg p.o., VAS 0.02 i.u./kg, 90 min
[14] = 30 mg/kg p.o., VAS 0.02 i.u./kg, 120 min
[15] = 30 mg/kg p.o., VAS 0.02 i.u./kg, 180 min
[16] = 30 mg/kg p.o., VAS 0.02 i.u./kg, 240 min
[17] = 10 mg/kg i.v., VAS 0.01 i.u./kg, 30 min
[18] = 10 mg/kg i.v., VAS 0.01 i.u./kg, 60 min
[19] = 10 mg/kg i.v., VAS 0.01 i.u./kg, 90 min
[20] = 10 mg/kg i.v., VAS 0.01 i.u./kg, 120 min
[21] = 10 mg/kg i.v., VAS 0.01 i.u./kg, 180 min
[22] = 10 mg/kg i.v., VAS 0.01 i.u./kg, 240 min
[23] = 10 mg/kg i.v., VAS 0.01 i.u./kg, 300 min
[24] = 10 mg/kg i.v., VAS 0.02 i.u./kg, 30 min
[25] = 10 mg/kg i.v., VAS 0.02 i.u./kg, 60 min
[26] = 10 mg/kg i.v., VAS 0.02 i.u./kg, 90 min
[27] = 10 mg/kg i.v., VAS 0.02 i.u./kg, 120 min
[28] = 10 mg/kg i.v., VAS 0.02 i.u./kg, 180 min
[29] = 10 mg/kg i.v., VAS 0.02 i.u./kg, 240 min
[30] = 10 mg/kg i.v., VAS 0.02 i.u./kg, 300 min

T1 sequence (Q00788 whole entry): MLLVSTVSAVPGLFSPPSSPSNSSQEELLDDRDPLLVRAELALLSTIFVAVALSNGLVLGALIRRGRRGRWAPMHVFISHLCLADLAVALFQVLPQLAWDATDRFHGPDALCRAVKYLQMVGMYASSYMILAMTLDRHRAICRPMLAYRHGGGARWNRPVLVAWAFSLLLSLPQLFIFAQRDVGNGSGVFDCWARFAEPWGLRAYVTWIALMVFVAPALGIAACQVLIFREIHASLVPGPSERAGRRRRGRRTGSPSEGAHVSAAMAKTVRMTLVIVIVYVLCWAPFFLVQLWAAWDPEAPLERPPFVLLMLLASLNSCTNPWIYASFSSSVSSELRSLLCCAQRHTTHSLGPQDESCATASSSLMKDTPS
vasopressin V1 receptor (rat liver plasma membranes), sequence (P30560 whole entry): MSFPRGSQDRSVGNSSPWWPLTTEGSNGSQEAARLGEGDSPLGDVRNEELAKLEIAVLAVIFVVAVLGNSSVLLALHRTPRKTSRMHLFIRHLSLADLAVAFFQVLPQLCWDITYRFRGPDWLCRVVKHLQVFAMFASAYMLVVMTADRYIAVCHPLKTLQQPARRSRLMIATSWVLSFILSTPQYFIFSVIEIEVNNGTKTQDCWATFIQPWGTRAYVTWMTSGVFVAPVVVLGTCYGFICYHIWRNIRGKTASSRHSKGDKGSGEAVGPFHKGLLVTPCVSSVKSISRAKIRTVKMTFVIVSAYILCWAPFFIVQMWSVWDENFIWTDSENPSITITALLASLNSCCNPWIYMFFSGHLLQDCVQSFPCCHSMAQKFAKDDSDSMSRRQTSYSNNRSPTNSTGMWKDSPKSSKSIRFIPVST

What does the source list for `O=C(Cc1ccccc1Cl)Nc1ccc(C(=O)N2Cc3ccccc3Cc3ccccc32)cc1` [Example 16, 2-Chloro-N-[4-[(6,11-dihydro-5H-dibenz[b,e]azepin-5-yl)carbonyl]phenyl]benzeneacetamide]?
IC50 [1]: 53 nM; IC50 [2]: 65 nM; Osmolality [3]: 1257 mOsm/kg; Urine Volume [3]: 7.2 ml/4 hrs.; Average Change [4, 5]: 25; Inhibition [4, 5]: 15%; Average Change [4, 6]: 30.5; Inhibition [4, 6]: -3%; Average Change [4, 7]: 28.5; Inhibition [4, 7]: 3%; Average Change [4, 8]: 23.5; Inhibition [4, 8]: 20%; Average Change [4, 9]: 30.5; Inhibition [4, 9]: -3%; Average Change [4, 10]: 30; Inhibition [4, 10]: -2%; Average Change [4, 11]: 27.5; Inhibition [4, 11]: 17%; Average Change [4, 12]: 29; Inhibition [4, 12]: 12%; Average Change [4, 13]: 40.5; Inhibition [4, 13]: -23%; Average Change [4, 14]: 29.5; Inhibition [4, 14]: 11%; Average Change [4, 15]: 26; Inhibition [4, 15]: 21%; Average Change [4, 16]: 30; Inhibition [4, 16]: 9%

Which IC50 [1] does the source give for `Cc1ccccc1C(=O)Nc1ccc(C(=O)N2Cc3ccccc3C(C)c3ccccc32)cc1` (stereo not drawn) [Example 22] here?
Its IC50 is 320 nM.

And the IC50 [2]?
Its IC50 is 140 nM.

And the Osmolality [3]?
Its Osmolality is 738 mOsm/kg.

And the “Urine Volume” value [3]?
The value was 10.2 ml/4 hrs.

And the “Average Change” value [4, 17]?
Its value is 8.5.

And the Inhibition [4, 17]?
The Inhibition was 60%.

And the “Average Change” value [4, 18]?
The value was 11.

And the Inhibition [4, 18]?
Its Inhibition is 49%.

And the “Average Change” value [4, 19]?
The value was 14.

And the Inhibition [4, 19]?
The Inhibition was 35%.

What about the “Average Change” value [4, 20] of the same molecule?
Its value is 17.5.

And the Inhibition [4, 20]?
The Inhibition was 19%.

What about the “Average Change” value [4, 21] of the same molecule?
The value was 20.

What about the Inhibition [4, 21] of the same molecule?
The Inhibition was 7%.

What about the “Average Change” value [4, 22] of the same molecule?
The value was 28.

And the Inhibition [4, 22]?
Its Inhibition is -30%.

And the “Average Change” value [4, 23]?
Its value is 30.

What about the Inhibition [4, 23] of the same molecule?
Its Inhibition is -40%.

What about the “Average Change” value [4, 24] of the same molecule?
Its value is 18.5.

What about the Inhibition [4, 24] of the same molecule?
The Inhibition was 56%.

What about the “Average Change” value [4, 25] of the same molecule?
The value was 25.

What about the Inhibition [4, 25] of the same molecule?
The Inhibition was 40%.

What about the “Average Change” value [4, 26] of the same molecule?
The value was 13.

What about the Inhibition [4, 26] of the same molecule?
The Inhibition was 69%.

What about the “Average Change” value [4, 27] of the same molecule?
The value was 30.

And the Inhibition [4, 27]?
Its Inhibition is 29%.

And the “Average Change” value [4, 28]?
Its value is 36.

What about the Inhibition [4, 28] of the same molecule?
Its Inhibition is 14%.

And the “Average Change” value [4, 29]?
The value was 48.

And the Inhibition [4, 29]?
The Inhibition was -14%.

What about the “Average Change” value [4, 30] of the same molecule?
The value was 52.5.

And the Inhibition [4, 30]?
The Inhibition was -25%.
